Legend:
Interstitial collagenase = molecular target: T1, Interstitial collagenase (Homo sapiens, UniProt P03956); type: tissue-based, Rheumatoid synovial fibroblasts;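 further: MMP-1 enzyme inhibition assay using a peptide substrate; in other assays of this panel Not Active means under 50% inhibition at 10 µM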
T1 sequence (P03956 whole entry): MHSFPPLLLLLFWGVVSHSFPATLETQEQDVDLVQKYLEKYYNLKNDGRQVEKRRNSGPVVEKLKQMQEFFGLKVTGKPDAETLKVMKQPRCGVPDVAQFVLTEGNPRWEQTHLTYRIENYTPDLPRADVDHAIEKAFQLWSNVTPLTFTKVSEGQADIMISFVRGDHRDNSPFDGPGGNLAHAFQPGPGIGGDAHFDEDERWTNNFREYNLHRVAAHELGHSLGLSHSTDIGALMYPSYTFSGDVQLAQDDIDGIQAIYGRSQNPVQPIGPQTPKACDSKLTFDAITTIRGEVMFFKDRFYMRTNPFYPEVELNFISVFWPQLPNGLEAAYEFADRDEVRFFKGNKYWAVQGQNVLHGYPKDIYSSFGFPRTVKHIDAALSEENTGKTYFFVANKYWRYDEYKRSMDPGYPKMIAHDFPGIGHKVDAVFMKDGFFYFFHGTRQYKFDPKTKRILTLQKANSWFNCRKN

[1] = molecular target: Receptor tyrosine-protein kinase erbB-2 (Homo sapiens, UniProt P04626); experiment: biochemical; type: cell-based, Insect cells; settings: insect cells;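 further: inhibition of HER2 kinase enzyme activity, measured with Poly(Glu:Tyr) as the phosphorylation substrate; in other assays of this panel Not Active means under 50% inhibition at 10 µM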
Sequence of Receptor tyrosine-protein kinase erbB-2 (P04626 whole entry): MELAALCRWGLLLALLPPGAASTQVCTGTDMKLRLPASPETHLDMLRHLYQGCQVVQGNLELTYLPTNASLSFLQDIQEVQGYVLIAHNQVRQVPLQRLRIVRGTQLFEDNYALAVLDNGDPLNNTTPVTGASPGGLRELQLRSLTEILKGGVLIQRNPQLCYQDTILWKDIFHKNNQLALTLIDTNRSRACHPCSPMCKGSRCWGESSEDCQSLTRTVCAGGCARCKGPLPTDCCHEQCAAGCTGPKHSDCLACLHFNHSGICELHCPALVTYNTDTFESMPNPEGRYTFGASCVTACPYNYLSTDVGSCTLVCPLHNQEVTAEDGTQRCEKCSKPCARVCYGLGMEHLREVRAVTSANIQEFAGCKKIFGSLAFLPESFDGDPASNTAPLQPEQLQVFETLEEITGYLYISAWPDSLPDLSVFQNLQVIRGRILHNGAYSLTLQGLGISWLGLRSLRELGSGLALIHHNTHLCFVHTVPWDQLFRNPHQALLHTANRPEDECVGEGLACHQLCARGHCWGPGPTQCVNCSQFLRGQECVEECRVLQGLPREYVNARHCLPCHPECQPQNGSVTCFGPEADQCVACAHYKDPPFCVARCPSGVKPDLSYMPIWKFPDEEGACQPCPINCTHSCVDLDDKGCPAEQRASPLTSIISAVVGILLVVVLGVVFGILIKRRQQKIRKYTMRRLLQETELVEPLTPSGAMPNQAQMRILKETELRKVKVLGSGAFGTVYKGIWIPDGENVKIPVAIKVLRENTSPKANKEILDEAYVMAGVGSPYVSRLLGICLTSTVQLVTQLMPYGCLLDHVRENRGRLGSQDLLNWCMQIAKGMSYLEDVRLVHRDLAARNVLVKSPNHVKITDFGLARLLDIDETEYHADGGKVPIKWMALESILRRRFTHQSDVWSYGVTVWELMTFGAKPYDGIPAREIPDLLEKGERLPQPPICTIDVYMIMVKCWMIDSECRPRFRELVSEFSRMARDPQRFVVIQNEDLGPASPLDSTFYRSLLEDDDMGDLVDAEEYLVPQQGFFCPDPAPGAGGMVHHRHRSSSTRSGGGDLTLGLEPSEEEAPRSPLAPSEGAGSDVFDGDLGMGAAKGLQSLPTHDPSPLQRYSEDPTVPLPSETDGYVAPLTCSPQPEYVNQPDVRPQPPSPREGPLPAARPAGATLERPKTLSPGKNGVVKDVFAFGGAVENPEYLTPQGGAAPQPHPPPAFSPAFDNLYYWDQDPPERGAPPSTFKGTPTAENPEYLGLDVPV

[2] = molecular target: Prostaglandin G/H synthase 1 (Homo sapiens, UniProt P23219); experiment: biochemical; type: tissue-based, Platelet; settings: platelet;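 further: inhibition of COX-1 enzyme activity, with arachidonic acid supplied as substrate; in other assays of this panel Not Active means under 50% inhibition at 10 µM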
Sequence of Prostaglandin G/H synthase 1 (P23219 whole entry): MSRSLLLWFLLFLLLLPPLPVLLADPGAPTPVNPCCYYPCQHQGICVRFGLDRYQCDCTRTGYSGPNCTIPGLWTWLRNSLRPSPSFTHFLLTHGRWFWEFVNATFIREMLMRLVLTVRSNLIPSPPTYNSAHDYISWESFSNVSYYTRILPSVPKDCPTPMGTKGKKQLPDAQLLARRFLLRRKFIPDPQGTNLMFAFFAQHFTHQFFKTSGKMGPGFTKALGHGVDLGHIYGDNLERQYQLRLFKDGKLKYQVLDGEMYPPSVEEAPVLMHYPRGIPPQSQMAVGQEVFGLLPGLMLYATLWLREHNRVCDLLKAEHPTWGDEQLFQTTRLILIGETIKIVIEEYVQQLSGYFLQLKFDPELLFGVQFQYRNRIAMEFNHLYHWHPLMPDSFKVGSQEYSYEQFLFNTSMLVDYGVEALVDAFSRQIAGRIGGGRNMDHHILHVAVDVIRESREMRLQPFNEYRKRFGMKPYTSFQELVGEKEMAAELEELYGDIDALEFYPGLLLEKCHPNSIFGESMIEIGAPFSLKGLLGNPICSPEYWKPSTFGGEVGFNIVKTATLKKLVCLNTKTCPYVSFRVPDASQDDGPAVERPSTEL

[3] = molecular target: Delta-type opioid receptor (Homo sapiens, UniProt P41143); type: cell membranes, HEK293, Membrane; settings: hek293; further: in other assays of this panel Not Active means under 50% inhibition at 10 µM
Sequence of Delta-type opioid receptor (P41143 whole entry): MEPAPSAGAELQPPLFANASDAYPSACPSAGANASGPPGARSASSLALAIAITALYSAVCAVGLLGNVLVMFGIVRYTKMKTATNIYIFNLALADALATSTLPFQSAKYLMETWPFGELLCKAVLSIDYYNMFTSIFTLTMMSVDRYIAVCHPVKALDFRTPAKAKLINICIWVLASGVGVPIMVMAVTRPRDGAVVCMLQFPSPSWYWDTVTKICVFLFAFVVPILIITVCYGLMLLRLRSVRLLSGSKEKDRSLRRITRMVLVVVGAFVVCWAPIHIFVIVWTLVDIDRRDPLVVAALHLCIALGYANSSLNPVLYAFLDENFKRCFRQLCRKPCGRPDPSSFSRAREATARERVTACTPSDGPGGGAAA

[4] = molecular target: T2, Nitric oxide synthase, inducible (Mus musculus, UniProt P29477); design: species or system Escherichia coli
T2 sequence (P29477 whole entry): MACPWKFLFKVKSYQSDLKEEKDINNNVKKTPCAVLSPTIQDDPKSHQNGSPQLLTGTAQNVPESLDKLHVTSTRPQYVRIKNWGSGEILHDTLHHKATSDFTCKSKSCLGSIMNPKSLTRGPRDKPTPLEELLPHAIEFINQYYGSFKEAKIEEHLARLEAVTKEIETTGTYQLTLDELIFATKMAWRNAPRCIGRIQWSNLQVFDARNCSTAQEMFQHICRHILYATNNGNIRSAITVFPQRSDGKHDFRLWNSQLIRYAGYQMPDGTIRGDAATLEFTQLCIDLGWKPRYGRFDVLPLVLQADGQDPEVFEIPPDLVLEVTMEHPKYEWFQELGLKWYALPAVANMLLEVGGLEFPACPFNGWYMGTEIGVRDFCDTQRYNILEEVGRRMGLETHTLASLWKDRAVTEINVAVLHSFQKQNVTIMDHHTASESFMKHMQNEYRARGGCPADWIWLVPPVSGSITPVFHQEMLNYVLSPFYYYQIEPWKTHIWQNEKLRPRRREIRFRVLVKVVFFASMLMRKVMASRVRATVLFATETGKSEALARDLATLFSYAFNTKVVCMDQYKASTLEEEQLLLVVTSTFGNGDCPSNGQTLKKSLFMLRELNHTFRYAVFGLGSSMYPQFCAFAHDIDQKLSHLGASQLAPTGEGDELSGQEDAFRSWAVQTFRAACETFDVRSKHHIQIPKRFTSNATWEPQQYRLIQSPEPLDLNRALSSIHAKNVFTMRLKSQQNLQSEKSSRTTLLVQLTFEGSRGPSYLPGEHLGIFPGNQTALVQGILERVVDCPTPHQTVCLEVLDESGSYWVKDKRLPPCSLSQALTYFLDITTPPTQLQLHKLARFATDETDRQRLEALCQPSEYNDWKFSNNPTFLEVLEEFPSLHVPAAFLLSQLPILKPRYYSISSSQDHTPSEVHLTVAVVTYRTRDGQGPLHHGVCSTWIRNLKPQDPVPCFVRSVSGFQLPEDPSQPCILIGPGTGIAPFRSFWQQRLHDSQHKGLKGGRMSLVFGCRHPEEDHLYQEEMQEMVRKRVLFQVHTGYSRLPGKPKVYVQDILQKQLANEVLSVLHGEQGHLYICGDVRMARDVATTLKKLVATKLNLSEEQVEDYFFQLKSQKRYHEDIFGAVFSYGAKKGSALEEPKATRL

[5] = DRUGMATRIX: Interleukin IL-1 radioligand binding (ligand: [125I] interleukin 1beta); type: cell membranes, Membrane; settings: nih3t3; Not Active = under 50% inhibition at 10 µM
[6] = molecular target: T3, Alpha-1A adrenergic receptor (Rattus norvegicus, UniProt P43140); experiment: DRUGMATRIX: Alpha-1A adrenergic receptor radioligand binding (ligand: prazosin); type: cell membranes, Wistar, Submaxillary gland, Membrane; settings: Not Active = under 50% inhibition at 10 µM
T3 sequence (P43140 whole entry): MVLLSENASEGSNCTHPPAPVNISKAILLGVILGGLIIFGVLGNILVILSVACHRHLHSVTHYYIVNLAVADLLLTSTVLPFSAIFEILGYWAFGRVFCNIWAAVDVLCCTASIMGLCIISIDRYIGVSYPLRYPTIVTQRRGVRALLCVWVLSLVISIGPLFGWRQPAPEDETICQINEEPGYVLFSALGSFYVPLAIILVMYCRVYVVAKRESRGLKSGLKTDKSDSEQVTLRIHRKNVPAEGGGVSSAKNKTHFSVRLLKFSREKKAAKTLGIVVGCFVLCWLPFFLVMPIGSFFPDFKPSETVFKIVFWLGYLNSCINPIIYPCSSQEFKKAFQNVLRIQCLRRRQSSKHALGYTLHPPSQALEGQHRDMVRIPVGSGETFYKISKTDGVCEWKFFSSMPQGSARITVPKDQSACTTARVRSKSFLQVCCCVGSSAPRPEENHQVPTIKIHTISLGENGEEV

[7] = molecular target: 5-hydroxytryptamine receptor 2B (Homo sapiens, UniProt P41595); type: cell membranes, CHO-K1, Membrane; settings: cho-k1; further: in other assays of this panel Not Active means under 50% inhibition at 10 µM
Sequence of 5-hydroxytryptamine receptor 2B (P41595 whole entry): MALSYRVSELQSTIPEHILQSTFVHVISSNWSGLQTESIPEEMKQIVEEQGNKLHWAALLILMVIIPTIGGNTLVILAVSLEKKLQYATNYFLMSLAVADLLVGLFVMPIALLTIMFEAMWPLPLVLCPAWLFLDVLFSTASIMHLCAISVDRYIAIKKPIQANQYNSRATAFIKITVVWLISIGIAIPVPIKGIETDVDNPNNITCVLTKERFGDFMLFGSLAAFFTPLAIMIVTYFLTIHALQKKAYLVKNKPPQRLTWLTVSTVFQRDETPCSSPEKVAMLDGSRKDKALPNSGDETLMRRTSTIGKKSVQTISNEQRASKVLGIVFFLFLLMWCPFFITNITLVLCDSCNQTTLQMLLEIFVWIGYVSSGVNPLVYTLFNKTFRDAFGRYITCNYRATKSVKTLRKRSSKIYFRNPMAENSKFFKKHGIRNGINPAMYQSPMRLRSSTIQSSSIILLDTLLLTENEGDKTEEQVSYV

[8] = molecular target: Epidermal growth factor receptor (Homo sapiens, UniProt P00533); experiment: DRUGMATRIX: Protein Tyrosine Kinase, EGF Receptor enzyme inhibition (substrate: Poly(Glu:Tyr)); type: cell-based, Insect cells; settings: insect cells; Not Active = under 50% inhibition at 10 µM
Sequence of Epidermal growth factor receptor (P00533 whole entry): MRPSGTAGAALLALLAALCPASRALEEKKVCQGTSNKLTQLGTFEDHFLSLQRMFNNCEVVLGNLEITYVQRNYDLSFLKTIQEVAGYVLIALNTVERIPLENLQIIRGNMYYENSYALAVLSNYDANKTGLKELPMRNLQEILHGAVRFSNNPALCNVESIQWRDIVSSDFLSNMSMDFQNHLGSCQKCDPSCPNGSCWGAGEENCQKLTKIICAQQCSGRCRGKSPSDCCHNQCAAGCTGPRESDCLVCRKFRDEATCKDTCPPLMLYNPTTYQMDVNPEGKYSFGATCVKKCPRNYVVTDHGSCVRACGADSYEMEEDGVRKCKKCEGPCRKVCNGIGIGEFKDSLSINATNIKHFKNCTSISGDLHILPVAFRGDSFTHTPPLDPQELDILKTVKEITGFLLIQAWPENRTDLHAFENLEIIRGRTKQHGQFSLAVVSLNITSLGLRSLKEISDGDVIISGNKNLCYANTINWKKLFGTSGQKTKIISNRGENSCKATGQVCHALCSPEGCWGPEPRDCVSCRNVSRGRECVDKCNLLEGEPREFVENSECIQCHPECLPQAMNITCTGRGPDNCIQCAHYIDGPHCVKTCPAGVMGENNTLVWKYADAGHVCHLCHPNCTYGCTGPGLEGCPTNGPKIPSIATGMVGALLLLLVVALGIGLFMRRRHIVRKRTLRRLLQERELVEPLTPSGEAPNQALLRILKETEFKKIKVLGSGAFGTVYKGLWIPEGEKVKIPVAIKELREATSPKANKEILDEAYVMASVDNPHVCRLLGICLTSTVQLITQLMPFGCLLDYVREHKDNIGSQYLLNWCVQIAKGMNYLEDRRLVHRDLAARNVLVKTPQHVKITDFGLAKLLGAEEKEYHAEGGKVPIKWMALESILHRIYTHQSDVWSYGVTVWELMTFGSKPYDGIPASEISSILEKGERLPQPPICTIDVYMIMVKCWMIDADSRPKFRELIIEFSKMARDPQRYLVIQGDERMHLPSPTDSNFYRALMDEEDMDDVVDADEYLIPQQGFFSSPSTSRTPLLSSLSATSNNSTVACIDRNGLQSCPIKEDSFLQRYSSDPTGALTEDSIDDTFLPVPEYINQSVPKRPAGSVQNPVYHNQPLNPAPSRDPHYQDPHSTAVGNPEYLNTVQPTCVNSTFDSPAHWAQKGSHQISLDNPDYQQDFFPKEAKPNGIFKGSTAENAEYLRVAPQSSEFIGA

Glycine receptor = Glycine receptor (Rattus norvegicus, UniProt P22771+P24524+P07727+P20781); type: cell membranes, Wistar, Spinal cord, Membrane; further: in other assays of this panel Not Active means under 50% inhibition at 10 µM
[9] = molecular target: Beta-1 adrenergic receptor (Homo sapiens, UniProt P08588); experiment: DRUGMATRIX: Adrenergic beta1 radioligand binding (ligand: [125I] Cyanopindolol); type: cell membranes, CHO-K1, Membrane; settings: cho-k1; Not Active = under 50% inhibition at 10 µM
Sequence of Beta-1 adrenergic receptor (P08588 whole entry): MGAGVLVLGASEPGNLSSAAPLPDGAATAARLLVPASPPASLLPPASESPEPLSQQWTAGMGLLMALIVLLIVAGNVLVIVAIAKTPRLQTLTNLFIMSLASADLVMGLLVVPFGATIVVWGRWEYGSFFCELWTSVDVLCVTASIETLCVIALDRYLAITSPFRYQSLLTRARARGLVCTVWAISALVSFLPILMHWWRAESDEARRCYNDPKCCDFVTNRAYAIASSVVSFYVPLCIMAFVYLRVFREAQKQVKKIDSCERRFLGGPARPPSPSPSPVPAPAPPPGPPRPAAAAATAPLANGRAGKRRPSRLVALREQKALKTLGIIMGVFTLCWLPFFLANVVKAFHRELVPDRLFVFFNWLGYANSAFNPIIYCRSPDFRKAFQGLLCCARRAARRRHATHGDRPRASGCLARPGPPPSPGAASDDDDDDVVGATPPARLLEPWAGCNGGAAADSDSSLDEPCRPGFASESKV

CC(C)n1c(/C=C/C(O)CC(O)CC(=O)O)c(-c2ccc(F)cc2)c2ccccc21 (stereo not drawn) [FLUVASTATIN]
Not Active: IC50 (Interstitial collagenase) | IC50 [1] | IC50 [2] | IC50 [3] | IC50 [4] | IC50 [5] | Ki [5] | IC50 [6] | IC50 [7] | IC50 [8] | IC50 (Glycine receptor) | IC50 [9]

O=C1OCCN1/N=C/c1ccc([N+](=O)[O-])o1 [FURAZOLIDONE]
Not Active: IC50 (Interstitial collagenase) | IC50 [1] | IC50 [2] | IC50 [3] | IC50 [4] | IC50 [5] | Ki [5] | IC50 [6] | IC50 [7] | IC50 [8] | IC50 (Glycine receptor) | IC50 [9]

NCC1(CC(=O)O)CCCCC1 [GABAPENTIN]
Not Active: IC50 (Interstitial collagenase) | IC50 [1] | IC50 [2] | IC50 [3] | IC50 [4] | IC50 [5] | Ki [5] | IC50 [6] | IC50 [7] | IC50 [8] | IC50 (Glycine receptor) | IC50 [9]

CC[N+](CC)(CC)CCOc1cccc(OCC[N+](CC)(CC)CC)c1OCC[N+](CC)(CC)CC.[I-].[I-].[I-] [GALLAMINE TRIETHIODIDE]
Not Active: IC50 (Interstitial collagenase) | IC50 [1] | IC50 [2] | IC50 [3] | IC50 [4] | IC50 [5] | Ki [5] | IC50 [6] | IC50 [7] | IC50 [8] | IC50 (Glycine receptor) | IC50 [9]

Nc1nc2c(ncn2COC(CO)CO)c(=O)[nH]1 [GANCICLOVIR]
Not Active: IC50 (Interstitial collagenase) | IC50 [1] | IC50 [2] | IC50 [3] | IC50 [4] | IC50 [5] | Ki [5] | IC50 [6] | IC50 [7] | IC50 [8] | IC50 (Glycine receptor) | IC50 [9]

NCC(=O)O [GLYCINE]
Not Active: IC50 (Interstitial collagenase) | IC50 [1] | IC50 [2] | IC50 [3] | IC50 [4] | IC50 [5] | Ki [5] | IC50 [6] | IC50 [7] | IC50 [8] | IC50 (Glycine receptor) | IC50 [9]

CC1(C)[C@@H](O[C@H]2O[C@H](C(=O)O)[C@@H](O)[C@H](O)[C@H]2O[C@@H]2O[C@H](C(=O)O)[C@@H](O)[C@H](O)[C@H]2O)CC[C@]2(C)[C@H]3C(=O)C=C4[C@@H]5C[C@@](C)(C(=O)O)CC[C@]5(C)CC[C@@]4(C)[C@]3(C)CC[C@@H]12 [GLYCYRRHIZIN]
Not Active: IC50 (Interstitial collagenase) | IC50 [1] | IC50 [2] | IC50 [3] | IC50 [4] | IC50 [5] | Ki [5] | IC50 [6] | IC50 [7] | IC50 [8] | IC50 (Glycine receptor) | IC50 [9]

COC1=CC(=O)C[C@@H](C)[C@]12Oc1c(Cl)c(OC)cc(OC)c1C2=O [GRISEOFULVIN]
Not Active: IC50 (Interstitial collagenase) | IC50 [1] | IC50 [2] | IC50 [3] | IC50 [4] | IC50 [5] | Ki [5] | IC50 [6] | IC50 [7] | IC50 [8] | IC50 (Glycine receptor) | IC50 [9]

C/C=C1\[C@H]2C=C(C)C[C@]1(N)c1ccc(=O)[nH]c1C2 [HUPERZINE A]
Not Active: IC50 (Interstitial collagenase) | IC50 [1] | IC50 [2] | IC50 [3] | IC50 [4] | IC50 [5] | Ki [5] | IC50 [6] | IC50 [7] | IC50 [8] | IC50 (Glycine receptor) | IC50 [9]

Reference: ChEMBL document CHEMBL1909046, “DrugMatrix in vitro pharmacology data”
